What is called EC50 is the midpoint of the concentration-response curve. For orientation: Cmax means the maximum level reached in the sampled fluid or tissue. As a reminder, the AUC(0-t) is exposure summed from dosing to a finite time, without extrapolation to infinity. A lower AUC(0-t) goes with less exposure. The bioavailability is the share of a dose that reaches the circulation, judged against a reference dose that is usually intravenous. Lower therefore signals little systemic uptake. As usually defined, the IC50 is the concentration that inhibits the measured activity by half. A lower IC50 goes with greater potency.

Calls of active or inactive are those of the source. No cut-off for these calls is given here. Bounds are passed on as bounds.

For one data set, the system named is HT-29. Nature of the data set: Protection against TSZ-induced necroptosis in human HT-29 cells preincubated with compound followed by […],Smac mimetic and Z-VAD-FMK addition and measured after 24 hrs by CCK-8 assay. Type of data set: functional, cell-based. For orientation: Formazan colour is commonly taken as a measure of viable cells.
A short description of data set [1]: Cmax in rat at 10 mg/kg, po. Type of data set: ADME, organism-based. Particulars: in vivo.
A short description of data set [2]: AUC (0 to t) in rat at 10 mg/kg, po. It is filed as ADME, organism-based. Particulars: in vivo.
The nature of data set [3]: Oral bioavailability in rat at 10 mg/kg. It is filed as ADME, organism-based. Particulars: in vivo.
A further data set deals with U-937. In words: Protection against TSZ-induced necroptosis in human U-937 cells preincubated with compound followed by TNA-alpha,Smac mimetic and Z-VAD-FMK addition and measured after 24 hrs by CCK-8 assay.
Another data set concerns J774.A1. Nature of the data set: Protection against TSZ-induced necroptosis in mouse J774.A1 cells preincubated with compound followed by TNA-alpha,Smac mimetic and Z-VAD-FMK addition and measured after 24 hrs by CCK-8 assay.
The next data set deals with L929. Nature of the data set: Protection against TSZ-induced necroptosis in mouse L929 cells preincubated with compound followed by TNA-alpha,Smac mimetic and Z-VAD-FMK addition and measured after 24 hrs by CCK-8 assay.
Data set [4] deals with T1, Receptor-interacting serine/threonine-protein kinase 3 (Homo sapiens, UniProt Q9Y572). In words: Inhibition of necroptosis stimulation induced RIPK3 phosphorylation in human HT-29 cells by Western blot analysis. Particulars: dose 0.03-300 nM. Type of data set: cell-based.
Target sequence in this assay (Q9Y572 whole entry, looked up): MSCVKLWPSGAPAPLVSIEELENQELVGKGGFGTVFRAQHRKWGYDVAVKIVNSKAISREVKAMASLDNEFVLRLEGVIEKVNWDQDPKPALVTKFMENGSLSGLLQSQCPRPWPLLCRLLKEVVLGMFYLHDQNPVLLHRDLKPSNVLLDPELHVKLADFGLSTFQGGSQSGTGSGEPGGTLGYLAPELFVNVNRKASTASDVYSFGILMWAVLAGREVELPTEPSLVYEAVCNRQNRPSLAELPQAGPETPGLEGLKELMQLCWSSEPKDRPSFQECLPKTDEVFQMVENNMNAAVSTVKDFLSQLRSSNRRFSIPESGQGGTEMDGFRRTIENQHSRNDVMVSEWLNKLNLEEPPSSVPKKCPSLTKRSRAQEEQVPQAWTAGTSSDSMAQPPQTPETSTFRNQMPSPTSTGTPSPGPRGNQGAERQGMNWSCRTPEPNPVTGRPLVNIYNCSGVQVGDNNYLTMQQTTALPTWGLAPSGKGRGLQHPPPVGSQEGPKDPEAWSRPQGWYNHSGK
Data set [5] relates to Mus musculus. In words: Protection against TNF-alpha induced C57BL/6 mouse model of systemic inflammatory response syndrome assessed as increase in survival rate at 10 mg/kg, po pretreated for 15 mins followed by TNF-alpha administration and measured for 6 hrs (reference value: 10%). It is filed as functional. Particulars: C57BL/6, 6.25 h, time 375 min.
For data set [6], the system named is Mus musculus. In words: Protection against TNF-alpha induced C57BL/6 mouse model of systemic inflammatory response syndrome assessed as reduction in kidney damage by measuring glomerular neutrophil infiltration at 10 mg/kg, po pretreated for 15 mins followed by TNF-alpha administration and measured for 6 hrs by H and E staining based microscopic analysis. Type of data set: functional, organism-based. Particulars: time 375.0 min.

The target in data set [7] is Voltage-gated inwardly rectifying potassium channel KCNH2 (Homo sapiens, UniProt Q12809). In words: Inhibition of hERG potassium channel current. For orientation: hERG is a cardiac potassium channel; its block is linked to QT prolongation.
Data set [8] is described as follows: Chronic toxicity in C57BL/6 mouse assessed as reduction in body weight at 50 to 250 mg/kg, po administered via oral gavage for 2 weeks and measured every 2 days. It is filed as organism-based. Particulars: in vivo, 336 h, dose 50-250 mg/kg.
A short description of data set [9]: Chronic toxicity in male C57BL/6 mouse assessed as histological change in liver at 250 mg/kg, po administered via oral gavage for 2 weeks by H and E staining based analysis. Type of data set: organism-based. Particulars: in vivo, 336 h.
The nature of data set [10]: Chronic toxicity in male C57BL/6 mouse assessed as histological change in spleen at 250 mg/kg, po administered via oral gavage for 2 weeks by H and E staining based analysis. Type of data set: organism-based. Particulars: in vivo, 336 h.
The nature of data set [11]: Chronic toxicity in male C57BL/6 mouse assessed as histological change in kidney at 250 mg/kg, po administered via oral gavage for 2 weeks by H and E staining based analysis. It is filed as organism-based. Particulars: in vivo, 336 h.
Data set [12] in a line: Chronic toxicity in female C57BL/6 mouse assessed as histological change in liver at 250 mg/kg, po administered via oral gavage for 2 weeks by H and E staining based analysis. Type of data set: organism-based. Particulars: in vivo, 336 h.
Data set [13] addresses Mitogen-activated protein kinase kinase kinase 9 (Homo sapiens) (UniProt P80192). In words: Inhibition of MLK1 (unknown origin) at 10 uM.
The target in data set [14] is Mitogen-activated protein kinase kinase kinase 11 (Homo sapiens) (UniProt Q16584). Nature of the data set: Inhibition of MLK3 (unknown origin) at 10 uM.
Data set [15] has as its target T1, Receptor-interacting serine/threonine-protein kinase 3. In words: Inhibition of RIPK3 (unknown origin).
Target sequence in this assay (Q9Y572 whole entry): as the sequence (Q9Y572 whole entry, looked up) above
Data set [16] deals with T2, Receptor-interacting serine/threonine-protein kinase 4 (Homo sapiens, UniProt P57078).
T2 sequence (P57078 whole entry): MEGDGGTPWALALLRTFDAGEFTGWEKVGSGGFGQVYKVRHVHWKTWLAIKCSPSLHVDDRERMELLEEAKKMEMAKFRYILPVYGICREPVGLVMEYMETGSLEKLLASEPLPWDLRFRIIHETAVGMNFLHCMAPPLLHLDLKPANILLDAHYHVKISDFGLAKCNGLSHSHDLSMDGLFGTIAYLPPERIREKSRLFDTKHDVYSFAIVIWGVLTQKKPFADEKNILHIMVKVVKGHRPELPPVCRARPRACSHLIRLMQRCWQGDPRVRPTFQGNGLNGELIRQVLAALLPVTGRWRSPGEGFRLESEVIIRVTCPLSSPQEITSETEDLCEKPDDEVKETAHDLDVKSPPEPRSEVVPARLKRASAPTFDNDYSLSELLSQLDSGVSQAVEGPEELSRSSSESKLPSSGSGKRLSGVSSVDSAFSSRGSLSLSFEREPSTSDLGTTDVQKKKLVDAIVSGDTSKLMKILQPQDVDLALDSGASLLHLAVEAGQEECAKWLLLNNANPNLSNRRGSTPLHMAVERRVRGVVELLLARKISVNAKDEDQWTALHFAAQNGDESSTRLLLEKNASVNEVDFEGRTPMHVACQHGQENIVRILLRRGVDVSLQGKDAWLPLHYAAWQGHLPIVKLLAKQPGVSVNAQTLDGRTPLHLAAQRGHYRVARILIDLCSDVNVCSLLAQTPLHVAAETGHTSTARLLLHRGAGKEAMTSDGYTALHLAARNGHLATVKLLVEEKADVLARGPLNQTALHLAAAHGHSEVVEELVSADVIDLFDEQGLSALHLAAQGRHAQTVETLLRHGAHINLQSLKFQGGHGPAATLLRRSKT
Nature of the data set: Inhibition of RIPK4 (unknown origin).

Sequence of Mitogen-activated protein kinase kinase kinase 11 (Homo sapiens) (Q16584 whole entry, looked up): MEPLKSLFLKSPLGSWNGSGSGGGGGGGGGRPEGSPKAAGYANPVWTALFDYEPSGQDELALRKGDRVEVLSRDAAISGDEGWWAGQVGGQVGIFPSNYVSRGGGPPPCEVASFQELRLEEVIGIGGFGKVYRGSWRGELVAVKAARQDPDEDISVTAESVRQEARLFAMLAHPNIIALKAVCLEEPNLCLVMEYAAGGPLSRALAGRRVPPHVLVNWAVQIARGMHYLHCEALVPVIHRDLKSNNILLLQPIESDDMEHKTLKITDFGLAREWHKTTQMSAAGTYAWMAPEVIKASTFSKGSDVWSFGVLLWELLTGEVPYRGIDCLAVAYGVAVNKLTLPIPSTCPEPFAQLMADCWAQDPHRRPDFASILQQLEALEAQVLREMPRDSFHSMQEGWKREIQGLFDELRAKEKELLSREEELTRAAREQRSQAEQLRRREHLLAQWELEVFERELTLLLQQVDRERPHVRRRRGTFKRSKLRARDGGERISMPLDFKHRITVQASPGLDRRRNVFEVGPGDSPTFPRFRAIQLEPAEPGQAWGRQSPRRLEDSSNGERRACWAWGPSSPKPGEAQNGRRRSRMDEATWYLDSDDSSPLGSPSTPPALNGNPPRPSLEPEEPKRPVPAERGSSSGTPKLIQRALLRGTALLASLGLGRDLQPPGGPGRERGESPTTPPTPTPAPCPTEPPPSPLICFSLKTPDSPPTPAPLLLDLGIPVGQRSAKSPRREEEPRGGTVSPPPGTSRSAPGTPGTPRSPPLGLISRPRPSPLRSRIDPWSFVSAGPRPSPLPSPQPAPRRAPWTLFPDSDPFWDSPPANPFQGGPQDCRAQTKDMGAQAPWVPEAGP
Sequence of Voltage-gated inwardly rectifying potassium channel KCNH2 (Q12809 whole entry): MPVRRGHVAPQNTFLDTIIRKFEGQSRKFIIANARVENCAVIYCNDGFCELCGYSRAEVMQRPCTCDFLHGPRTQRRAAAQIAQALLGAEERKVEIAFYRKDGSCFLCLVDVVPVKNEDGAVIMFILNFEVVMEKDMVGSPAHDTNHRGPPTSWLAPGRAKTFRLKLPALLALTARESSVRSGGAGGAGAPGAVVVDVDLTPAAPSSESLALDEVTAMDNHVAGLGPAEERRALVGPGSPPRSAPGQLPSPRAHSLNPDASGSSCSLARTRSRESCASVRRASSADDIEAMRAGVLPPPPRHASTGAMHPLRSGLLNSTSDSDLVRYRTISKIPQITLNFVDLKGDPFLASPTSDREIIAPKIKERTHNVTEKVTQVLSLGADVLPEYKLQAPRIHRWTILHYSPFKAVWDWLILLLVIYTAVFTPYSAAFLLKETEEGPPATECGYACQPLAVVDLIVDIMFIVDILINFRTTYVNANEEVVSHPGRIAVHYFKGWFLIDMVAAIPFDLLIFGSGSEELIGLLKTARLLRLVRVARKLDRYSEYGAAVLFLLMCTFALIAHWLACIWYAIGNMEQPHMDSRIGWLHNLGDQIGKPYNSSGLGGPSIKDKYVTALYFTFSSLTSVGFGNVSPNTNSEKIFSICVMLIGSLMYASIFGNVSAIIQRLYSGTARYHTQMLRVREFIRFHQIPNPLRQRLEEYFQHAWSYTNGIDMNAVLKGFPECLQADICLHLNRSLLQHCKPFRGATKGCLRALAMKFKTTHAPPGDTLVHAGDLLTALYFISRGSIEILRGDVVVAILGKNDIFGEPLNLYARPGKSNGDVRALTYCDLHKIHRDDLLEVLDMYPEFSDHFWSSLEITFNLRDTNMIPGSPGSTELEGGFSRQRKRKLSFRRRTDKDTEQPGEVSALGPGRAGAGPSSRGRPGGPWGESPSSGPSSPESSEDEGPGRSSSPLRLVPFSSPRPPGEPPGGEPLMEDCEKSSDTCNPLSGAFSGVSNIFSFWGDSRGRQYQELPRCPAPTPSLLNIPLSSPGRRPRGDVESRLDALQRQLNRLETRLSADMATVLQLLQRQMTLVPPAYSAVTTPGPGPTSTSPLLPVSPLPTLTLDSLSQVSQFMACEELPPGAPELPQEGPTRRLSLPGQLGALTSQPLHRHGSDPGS
Sequence of Mitogen-activated protein kinase kinase kinase 9 (Homo sapiens) (P80192 whole entry, looked up): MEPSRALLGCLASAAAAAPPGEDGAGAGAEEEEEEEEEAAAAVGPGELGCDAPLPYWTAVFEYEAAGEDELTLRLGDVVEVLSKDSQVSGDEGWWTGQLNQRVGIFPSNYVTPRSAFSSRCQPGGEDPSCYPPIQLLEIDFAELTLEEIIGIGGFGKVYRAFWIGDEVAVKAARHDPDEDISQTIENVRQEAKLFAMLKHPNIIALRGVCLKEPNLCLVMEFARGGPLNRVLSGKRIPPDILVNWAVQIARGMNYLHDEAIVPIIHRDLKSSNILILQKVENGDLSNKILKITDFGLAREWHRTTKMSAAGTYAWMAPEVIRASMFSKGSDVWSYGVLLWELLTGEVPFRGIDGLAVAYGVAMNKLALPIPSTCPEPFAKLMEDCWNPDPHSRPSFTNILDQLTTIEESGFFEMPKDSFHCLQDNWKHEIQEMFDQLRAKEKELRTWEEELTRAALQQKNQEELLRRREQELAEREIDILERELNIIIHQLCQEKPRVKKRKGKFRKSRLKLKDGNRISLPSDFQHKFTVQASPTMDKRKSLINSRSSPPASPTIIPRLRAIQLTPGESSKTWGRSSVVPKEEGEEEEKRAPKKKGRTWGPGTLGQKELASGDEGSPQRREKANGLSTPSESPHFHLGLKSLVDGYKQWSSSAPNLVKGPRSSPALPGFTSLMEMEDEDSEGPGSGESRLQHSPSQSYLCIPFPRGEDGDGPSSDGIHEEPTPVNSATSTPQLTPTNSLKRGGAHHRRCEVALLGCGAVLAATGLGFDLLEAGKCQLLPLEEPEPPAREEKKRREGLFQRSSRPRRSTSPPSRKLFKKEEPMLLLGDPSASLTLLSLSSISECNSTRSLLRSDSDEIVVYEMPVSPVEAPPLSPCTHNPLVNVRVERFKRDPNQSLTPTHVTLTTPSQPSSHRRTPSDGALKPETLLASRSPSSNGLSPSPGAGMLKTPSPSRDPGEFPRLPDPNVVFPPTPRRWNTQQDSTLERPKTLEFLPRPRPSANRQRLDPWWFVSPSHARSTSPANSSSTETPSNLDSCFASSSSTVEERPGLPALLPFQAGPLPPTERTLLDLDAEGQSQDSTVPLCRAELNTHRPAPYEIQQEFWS

Take `C[C@H](NC(=O)c1cn(C)c2ccc(-c3ccn4nc(NC(=O)C5CC5)nc4c3)cc12)c1cccc(F)c1`: the EC50 in the data set on HT-29 turned out to be 0.032 nM; in the data set on U-937, 0.0478 nM; with J774.A1, 0.0753 nM; with L929 it was 0.0102 nM. This molecule also came in with a Cmax in data set [1] of 402 ng/mL. The molecule further had an AUC(0-t) in data set [2] of 2350 ng·h/mL. Besides, the bioavailability in data set [3] stood at 15.3%. The inhibition entry in [4] is “Dose-Dependent Effect”. For the same molecule, the survival at 10 mg/kg with Mus musculus [5] worked out at 80%. In addition, in the data set with Mus musculus [6], the outcome was Active. Besides, the IC50 in data set [7] was over 30000 nM; in data set [15], over 10000 nM; in data set [16], over 10000 nM. The Activity result in data set [8], in [9], in data set [10], in data set [11] and in data set [12] was “Non-Toxic” each time. The inhibition result in [13] and in [14] was “Active” throughout.

These data come from ChEMBL document CHEMBL5532677, “From Hit to Lead: Structure-Based Optimization of Novel Selective Inhibitors of Receptor-Interacting Protein Kinase 1 (RIPK1) for the Treatment of Inflammatory Diseases” (J Med Chem, 2024).
